The source of these data is patent publication US20110178070A1, “PI3K/mTOR INHIBITORS” (TAKEDA PHARMACEUTICAL COMPANY LIMITED, priority 2008, published 2011).

SMILES strings stand for the structures.

Chain of mTOR (P42345 1360-2549): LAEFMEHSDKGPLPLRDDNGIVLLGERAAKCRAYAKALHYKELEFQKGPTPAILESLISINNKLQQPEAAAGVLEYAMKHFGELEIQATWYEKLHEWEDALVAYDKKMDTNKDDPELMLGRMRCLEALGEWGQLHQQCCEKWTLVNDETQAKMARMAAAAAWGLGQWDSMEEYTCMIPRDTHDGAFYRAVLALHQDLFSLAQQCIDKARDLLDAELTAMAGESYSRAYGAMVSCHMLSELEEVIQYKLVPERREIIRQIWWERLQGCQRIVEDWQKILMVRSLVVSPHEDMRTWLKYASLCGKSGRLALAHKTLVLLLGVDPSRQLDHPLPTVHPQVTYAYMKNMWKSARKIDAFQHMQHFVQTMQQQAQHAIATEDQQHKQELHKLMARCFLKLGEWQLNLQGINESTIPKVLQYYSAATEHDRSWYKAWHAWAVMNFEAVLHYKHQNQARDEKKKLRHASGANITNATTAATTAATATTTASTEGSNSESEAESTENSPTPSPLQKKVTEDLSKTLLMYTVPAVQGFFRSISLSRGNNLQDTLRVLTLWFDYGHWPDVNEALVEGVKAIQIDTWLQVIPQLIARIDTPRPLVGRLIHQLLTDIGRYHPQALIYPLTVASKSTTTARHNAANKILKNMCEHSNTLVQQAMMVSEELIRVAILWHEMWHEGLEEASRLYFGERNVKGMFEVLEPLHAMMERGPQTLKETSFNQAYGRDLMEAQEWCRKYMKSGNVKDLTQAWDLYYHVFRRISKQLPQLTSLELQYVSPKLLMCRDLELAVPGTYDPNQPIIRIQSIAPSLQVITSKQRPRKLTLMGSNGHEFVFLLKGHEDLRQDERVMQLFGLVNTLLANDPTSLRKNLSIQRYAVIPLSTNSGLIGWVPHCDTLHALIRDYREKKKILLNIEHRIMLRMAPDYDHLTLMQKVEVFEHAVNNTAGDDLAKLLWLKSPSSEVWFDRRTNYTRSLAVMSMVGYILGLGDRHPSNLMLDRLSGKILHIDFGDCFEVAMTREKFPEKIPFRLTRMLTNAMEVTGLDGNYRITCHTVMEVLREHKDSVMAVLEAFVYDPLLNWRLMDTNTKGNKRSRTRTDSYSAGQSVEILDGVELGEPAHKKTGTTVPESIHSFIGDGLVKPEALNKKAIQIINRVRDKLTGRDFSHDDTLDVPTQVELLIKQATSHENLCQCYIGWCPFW

This assay has as its target mTOR (Homo sapiens, UniProt P42345). Description: Z-Lyte biochemical assay, inhibition of mTOR (Example A).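 Further: synthetic Ser/Thr peptide with coumarin–fluorescein FRET pair, phosphorylation protects from protease cleavage, coumarin/fluorescein emission ratio after 400 nm excitation, 1 h kinase reaction, 10-point 3-fold titrations.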 As to conditions: IC50 (nM) mTOR, Table 1; 10 μM ATP.
Experimental: The inhibitory property of a compound relative to mTOR catalysis was determined by using the Z-Lyte™ biochemical assay conducted by Invitrogen Corporation (Madison, Wis.), which employs a fluorescence-based, coupled-enzyme format and is based on the differential sensitivity of phosphorylated and non-phosphorylated peptides to proteolytic cleavage. The peptide substrate is labeled with two fluorophores—one at each end—that make up a FRET pair.
In the primary reaction, the kinase transfers the gamma-phosphate of ATP to a single tyrosine, serine or threonine residue in a synthetic FRET-peptide. In the secondary reaction, a site-specific protease recognizes and cleaves non-phosphorylated FRET-peptides. Phosphorylation of FRET-peptides suppresses cleavage by the Development Reagent. Cleavage disrupts FRET between the donor (i.e., coumarin) and acceptor (i.e., fluorescein) fluorophores on the FRET-peptide, whereas uncleaved, phosphorylated FRET-peptides maintain FRET. A ratio metric method, which calculates the ratio (the Emission Ratio) of donor emission to acceptor emission after excitation of the donor fluorophore at 400 nm, is used to quantitate reaction progress, as shown in the equation below.
A significant benefit of this ratio metric method for quantitating reaction progress is the elimination of well-to-well variations in FRET-peptide concentration and signal intensities. […] Both cleaved and uncleaved FRET-peptides contribute to the fluorescence signals and therefore to the Emission Ratio. The extent of phosphorylation of the FRET-peptide can be calculated from the Emission Ratio.
Recombinant human mTOR enzyme (amino acids 1360-2549), GST-tagged, expressed in and purified from insect cells (Invitrogen Corp. Cat. #PV4753; also known as FRAP1) was used for the assay. The 2×FRAP1 (mTOR)/Ser/Thr 11 Peptide Mixture (Invitrogen Corp.) was prepared in buffer containing 50 mM HEPES pH 7.5, 0.01% BRIJ-35, 10 mM MnCl2, 1 mM EGTA, 2 mM DTT, and 0.02% NaN3. The final 10 μL Kinase Reaction consisted of 7.2-58.1 ng FRAP1 (mTOR) and 2 μM Ser/Thr 11 Peptide in buffer containing 50 mM HEPES pH 7.5, 0.01% BRIJ-35, 5 mM MgCl2, 5 mM MnCl2, 1 mM EGTA, 1 mM DTT, and 0.01% NaN3.
Test compounds are screened in 1% DMSO (final) in the well. For 10 point titrations, 3-fold serial dilutions are conducted from the starting concentration. The Ser/Thr 11 Peptide/Kinase Mixture was diluted to a 2× working concentration in buffer containing 50 mM HEPES pH 7.5, 0.01% BRIJ-35, 10 mM MnCl2, 1 mM EGTA, 2 mM DTT, and 0.02% NaN3. The ATP solution was diluted to a 4× working concentration in buffer containing 50 mM HEPES pH 7.5, 0.01% BRIJ-35, 10 mM MgCl2, and 1 mM EGTA.
After the 1 hour Kinase Reaction incubation, 5 μL of a 1:16 dilution of Development Reagent B was added, and the development reaction was allowed to proceed for an additional 1 hour at room temperature. The assay plate was then read on a fluorescence plate reader and the data analyzed as outlined above.
IC50 values were calculated by non-linear least squares curve fitting using XLfit from IDBS to fit the results to model number 205 (sigmoidal dose-response model).
`CC(=O)Nc1nc2ccc(-c3ccc4[nH]ccc4c3)nc2s1` [Example 2, N-(5-(1H-Indol-5-yl)thiazolo[5,4-b]pyridin-2-yl)acetamide] came in with an IC50 of 100 to 1000 nM. The molecule `CC(=O)Nc1nc2ccc(-c3ccc4[nH]ncc4c3)nc2s1` [Example 3, N-(5-(1H-Indazol-5-yl)thiazolo[5,4-b]pyridin-2-yl)acetamide] registered a 50% inhibitory concentration (IC50) of 100 to 1000 nM. Take `CC(=O)Nc1ccc(-c2ccc3nc(NC(C)=O)sc3n2)cn1` [Example 4, N-(5-(6-Acetamidopyridin-3-yl)thiazolo[5,4-b]pyridin-2-yl)acetamide]: the IC50 lay within 100 to 1000 nM. The same measure for `CNC(=O)c1ccc(-c2ccc3nc(NC(C)=O)sc3n2)cn1` [Example 6, 5-(2-Acetamidothiazolo[5,4-b]pyridin-5-yl)-N-methylpicolinamide]: 100 to 1000 nM; for `CC(=O)Nc1nc2ccc(-c3cnc(Cl)c(NS(=O)(=O)c4ccccc4)c3)nc2s1` [Example 7, N-(5-(6-Chloro-5-(phenylsulfonamido)pyridin-3-yl)thiazolo[5,4-b]pyridin-2-yl)acetamide]: less than 100 nM; for `CC(=O)Nc1nc2ccc(-c3cnc(Cl)c(NS(C)(=O)=O)c3)nc2s1` [Example 8, N-(5-(6-Chloro-5-(methylsulfonamido)pyridin-3-yl)thiazolo[5,4-b]pyridin-2-yl)acetamide]: less than 100 nM. The result for `CS(=O)(=O)Nc1cc(-c2ccc3nc(NC(=O)C4CC4)sc3n2)cnc1Cl` [Example 9, N-(5-(6-Chloro-5-(methylsulfonamido)pyridin-3-yl)thiazolo[5,4-b]pyridin-2-yl)cyclopropanecarboxamide] reads less than 100 nM; that for `CC(=O)Nc1nc2ccc(-c3ccccc3)cc2s1` [Example 10, N-(6-Phenylbenzo[d]thiazol-2-yl)acetamide], greater than 1000 nM; that for `CC(=O)Nc1nc2ccc(-c3cccnc3)cc2s1` [Example 11, N-(6-(Pyridin-3-yl)benzo[d]thiazol-2-yl)acetamide], 100 to 1000 nM.

In turn, `CC(=O)Nc1nc2ccc(-c3ccc4[nH]ccc4c3)cc2s1` [Example 12, N-(6-(1H-Indol-5-yl)benzo[d]thiazol-2-yl)acetamide] gave an IC50 greater than 1000 nM.

Consider `CC(=O)Nc1nc2ccc(-c3ccc(N)cc3)cc2s1` [Example 13, N-(6-(4-Aminophenyl)benzo[d]thiazol-2-yl)acetamide], for which the IC50 is greater than 1000 nM.

The molecule `CC(=O)Nc1nc2ccc(-c3ccc4[nH]cc(C=O)c4c3)cc2s1` [Example 15, N-(6-(3-Formyl-1H-indol-5-yl)benzo[d]thiazol-2-yl)acetamide] had an IC50 of less than 100 nM.

The molecule `CC(=O)Nc1nc2ccc(-c3ccc4[nH]cc(C(N)=O)c4c3)cc2s1` [Example 17, 5-(2-Acetamidobenzo[d]thiazol-6-yl)-1H-indole-3-carboxamide] had an IC50 greater than 1000 nM. The same measure for `CC(=O)Nc1nc2ccc(-c3cnc(Cl)c(NS(=O)(=O)c4ccccc4)c3)cc2s1` [Example 18, N-(6-(6-Chloro-5-(phenylsulfonamido)pyridin-3-yl)benzo[d]thiazol-2-yl)acetamide]: less than 100 nM; for `CC(=O)Nc1nc2ccc(-c3ccc(N)cc3C(F)(F)F)cc2s1` [Example 19, N-(6-(4-Amino-2-(trifluoromethyl)phenyl)benzo[d]thiazol-2-yl)acetamide]: greater than 1000 nM.

`CC(=O)Nc1nc2ccc(-c3cnc(N)cn3)cc2s1` [Example 20, N-(6-(5-Aminopyrazin-2-yl)benzo[d]thiazol-2-yl)acetamide] gave an IC50 of 100 to 1000 nM. The result for `CC(=O)Nc1nc2ccc(-c3ccc4nccn4c3)nc2s1` [Example 22, N-(5-(Imidazo[1,2-a]pyridin-6-yl)thiazolo[5,4-b]pyridin-2-yl)acetamide] reads 100 to 1000 nM; that for `CC(=O)Nc1nc2ccc(-c3ccc(C#N)nc3)nc2s1` [Example 23, N-(5-(6-Cyanopyridin-3-yl)thiazolo[5,4-b]pyridin-2-yl)acetamide], 100 to 1000 nM.

As a reminder, the IC50 is the concentration at which inhibition is half-maximal.
